Source: patent US9770452B2, “Quinoxaline derivatives as GPR6 modulators” (Takeda Pharmaceutical Company Limited, priority 2012, dated 2017)
pIC50: −log10 of the molar value.

These substances were tested against T1, GPR6 receptor (Homo sapiens, UniProt P46095) (assay: Inhibition of cAMP Activity of GPR6 In Vitro Assay (CHO-K1 cells, HTRF cAMP)). Details: compounds of Compound Table 1; inhibition of constitutive cAMP activity of GPR6 expressed in CHO-K1 cells; approximate IC50; read-out: IC50.
T1 construct: expressed in transfected cells
T1 sequence (P46095 whole entry): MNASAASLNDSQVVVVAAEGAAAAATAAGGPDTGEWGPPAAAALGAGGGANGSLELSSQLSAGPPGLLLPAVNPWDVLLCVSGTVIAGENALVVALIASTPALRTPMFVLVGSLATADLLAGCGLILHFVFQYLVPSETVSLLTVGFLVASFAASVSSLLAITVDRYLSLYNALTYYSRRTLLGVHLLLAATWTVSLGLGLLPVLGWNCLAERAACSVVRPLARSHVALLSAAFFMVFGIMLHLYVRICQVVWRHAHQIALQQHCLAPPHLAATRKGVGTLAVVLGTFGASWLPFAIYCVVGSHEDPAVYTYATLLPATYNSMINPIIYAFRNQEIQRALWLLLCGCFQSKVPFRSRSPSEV
Assay type: cell-based
In short: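 CHO-K1 cells with doxycycline-induced (1 μg/ml, 20 h) GPR6 treated with compounds 45 min at 37 °C in Ringer's buffer (pH 7.4) with 0.5% fatty acid free BSA. Constitutive cAMP measured by Lance HTRF Ultra cAMP; IC50 from four-parameter logistic fit.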

| Substance | pIC50 |
| --- | --- |
| N-cyclopropyl-3-(4-(4-ethoxyphenoxy)piperidin-1-yl)pyrido[3,4-b]pyrazin-2-amine, 2,2,2-trifluoroacetic acid salt [Cpd 601] | 7.66 |
| N-cyclopropyl-3-(4-(4-fluoro-2-methylbenzyl)piperazin-1-yl)quinoxalin-2-amine, 2,2,2-trifluoroacetic acid salt [Cpd 157] | 3.98 |
| N-cyclopropyl-3-(4-(4-fluorobenzyl)piperazin-1-yl)pyrido[3,4-b]pyrazin-2-amine, 2,2,2-trifluoroacetic acid salt [Cpd 291] | 6.85 |
| N-cyclopropyl-3-(4-(4-fluorobenzyl)piperidin-1-yl)pyrido[3,4-b]pyrazin-2-amine, 2,2,2-trifluoroacetic acid salt [Cpd 421] | 5.08 |
| N-cyclopropyl-3-(4-(4-methoxyphenoxy)piperidin-1-yl)pyrido[3,4-b]pyrazin-2-amine [Cpd 552] | 7.62 |
| N-cyclopropyl-3-(4-((2,4-difluorophenyl)difluoromethyl)piperidin-1-yl)pyrido[3,4-b]pyrazin-2-amine [Cpd 545] | 7.35 |
| N-cyclopropyl-3-(4-((2,4-difluorophenyl)fluoromethyl)piperidin-1-yl)-7-methylpyrido[3,4-b]pyrazin-2-amine, 2,2,2-trifluoroacetic acid salt [Cpd 488] | 7.54 |
| N-cyclopropyl-3-(4-((2,5-difluorophenyl)difluoromethyl)piperidin-1-yl)pyrido[3,4-b]pyrazin-2-amine [Cpd 540] | 7.34 |
| N-cyclopropyl-3-(4-((4-(trifluoromethyl)phenyl)sulfonyl)piperazin-1-yl)pyrido[3,4-b]pyrazin-2-amine, 2,2,2-trifluoroacetic acid salt [Cpd 302] | 6.47 |
| N-cyclopropyl-3-(4-((4-fluorophenyl)sulfonyl)piperazin-1-yl)pyrido[3,4-b]pyrazin-2-amine, 2,2,2-trifluoroacetic acid salt [Cpd 288] | 5.58 |
| N-cyclopropyl-3-(4-((4-fluorophenyl)sulfonyl)piperidin-1-yl)-7-methylpyrido[3,4-b]pyrazin-2-amine 2,2,2-trifluoroacetate [Cpd 654] | 7.52 |
| N-cyclopropyl-3-(4-((5-methylisoxazol-3-yl)methyl)piperazin-1-yl)quinoxalin-2-amine, 2,2,2-trifluoroacetic acid salt [Cpd 158] | 6.36 |
| N-cyclopropyl-3-(4-(pyridin-4-yloxy)piperidin-1-yl)pyrido[3,4-b]pyridin-2-amine [Cpd 554] | 6.72 |
| N-ethyl-3-(4-(2-fluoro-4-methoxyphenoxy)piperidin-1-yl)pyrido[3,4-b]pyrazin-2-amine, 2,2,2-trifluoroacetic acid salt [Cpd 622] | 7.54 |
| azetidin-1-yl(2-(cyclopropylamino)-3-(4-(2-fluoro-4-methoxyphenoxy)piperidin-1-yl)pyrido[3,4-b]pyrazin-5-yl)methanone, 2,2,2-trifluoroacetic acid salt [Cpd 610] | 5.80 |
| mixture of N-cyclopropyl-3-(4-(2,5-dichlorobenzyl)piperazin-1-yl)-7-methoxyquinoxalin-2-amine, 2,2,2-trifluoroacetic acid salt and N-cyclopropyl-3-(4-(2,5-dichlorobenzyl)piperazin-1-yl)-7-methoxyquinoxalin-2-amine, 2,2,2-trifluoroacetic acid salt [Cpd 47] | 5.47 |
